In PubChem BioAssay (NCI) one finds GI50 and TGI data, which are given here for nine molecules.

Several values for one entry are separate records, joined by “and”; a condition that tells them apart may be missing. Equal entries are not always repeated.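 Interpolation was linear, between the two tested concentrations surrounding the appropriate level; five concentrations were tested over 48 hours in 96-well plates. GI50 = concentration required for 50% inhibition of growth. Definition used: TGI = concentration required for complete inhibition of growth.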 Where only a bound is given, the exact number is not on record here.

Some test systems named below: A498 renal; HCT-15 colon; KM12 colon; LOX IMVI melanoma; M14 melanoma; MOLT-4 leukemia; NCI-H226 lung; OVCAR-4 ovarian; SNB-75 CNS; UACC-257 melanoma.
Assay in all cases: growth of human tumour cells (NCI), 48 h

As for `CN(C)CCCN=c1cc2c(=O)n(CCCN(C)C)c(=O)c3c(NCCCN(C)C)cc4c(O)n(CCCN(C)C)c(=O)c1c4c3-2`, the GI50 with A498 renal was 1150 nM; with HCT-15 colon, 4300 nM; in the assay on KM12 colon it was 2360 nM; with LOX IMVI melanoma, 2010 nM; with M14 melanoma, 5870 nM; in the assay on MOLT-4 leukemia it was 7.11 µM. Also, the GI50 in the assay on NCI-H226 lung is 0.258 µM; in the assay on OVCAR-4 ovarian, 1830 nM; in the assay on SNB-75 CNS it was 1250 nM; with UACC-257 melanoma, 2190 nM. In addition, the TGI with A498 renal came out at 3.92 µM; in the assay on HCT-15 colon it was 46.4 µM; in the assay with KM12 colon, 16.4 µM; with LOX IMVI melanoma, 8.36 µM; with M14 melanoma, 19.7 µM; in the assay on MOLT-4 leukemia, 98.8 µM. The TGI with NCI-H226 lung worked out at 4.12 µM; in the assay on OVCAR-4 ovarian, 7.9 µM; in the assay with SNB-75 CNS it was 3.68 µM; in the assay with UACC-257 melanoma, 7.35 µM.
Take `c1ccc2c(c1)nnn2CNc1ccc(N2CCOCC2)cc1`: the TGI in the assay with A498 renal, in the assay with HCT-15 colon, in the assay with KM12 colon, in the assay with LOX IMVI melanoma, in the assay on M14 melanoma and with MOLT-4 leukemia was over 100 µM throughout. Further, the TGI in the assay on NCI-H226 lung, in the assay on OVCAR-4 ovarian, in the assay with SNB-75 CNS and with UACC-257 melanoma was over 100 µM each time.
Consider `O=C1/C(=C/c2ccccc2Br)COc2ccc(O)c(O)c21`, for which the GI50 was 1970 nM in the assay on A498 renal; 557 nM with HCT-15 colon; 1610 nM in the assay on KM12 colon; 1030 nM with LOX IMVI melanoma; 1530 nM with M14 melanoma; 0.504 µM with MOLT-4 leukemia. The GI50 in the assay with NCI-H226 lung is 2.75 µM; with OVCAR-4 ovarian it was 2350 nM; in the assay with SNB-75 CNS, 1470 nM; with UACC-257 melanoma, 1530 nM. Also, the TGI was found to be 3.69 µM in the assay on A498 renal; 3.12 µM in the assay with HCT-15 colon; 4.78 µM with KM12 colon; 2.32 µM in the assay on LOX IMVI melanoma; 4.06 µM in the assay with M14 melanoma; 53.4 µM in the assay on MOLT-4 leukemia. The TGI in the assay with NCI-H226 lung is 8.19 µM; in the assay on OVCAR-4 ovarian, 10.2 µM; in the assay on SNB-75 CNS, 6.92 µM; in the assay with UACC-257 melanoma it was 5.17 µM.
Regarding `CCCC#CC(O)(C(=O)OC1CCN(C)CC1)C1CCCCC1` (stereo not given), the TGI with A498 renal, with HCT-15 colon, in the assay on KM12 colon, with LOX IMVI melanoma, in the assay on M14 melanoma and in the assay with MOLT-4 leukemia was over 100 µM in each case. In addition, the TGI in the assay on NCI-H226 lung, with OVCAR-4 ovarian, with SNB-75 CNS and in the assay with UACC-257 melanoma was over 100 µM in each case.
Take `COc1cc2c(Nc3ccc(Br)cc3F)ncnc2cc1OCC1CCN(C)CC1`: the GI50 was 712 nM and 2030 nM with A498 renal; 2270 nM and 2950 nM in the assay with HCT-15 colon; 8940 nM and > 10000 nM in the assay on KM12 colon; 2370 nM and 3390 nM with LOX IMVI melanoma; 1910 nM and 1740 nM with M14 melanoma; 3.97 µM and 9.42 µM with MOLT-4 leukemia. Further, the GI50 is 5.23 µM and > 10 µM in the assay with NCI-H226 lung; 2920 nM and 5590 nM in the assay on OVCAR-4 ovarian; 737 nM and 1130 nM with SNB-75 CNS; 1850 nM and 1730 nM in the assay with UACC-257 melanoma. Besides, the TGI with A498 renal is 4.36 µM and > 10 µM; with HCT-15 colon it was 11.5 µM and > 10 µM; in the assay on KM12 colon, 21.4 µM and > 10 µM; in the assay on LOX IMVI melanoma, 8.83 µM and > 10 µM; in the assay on M14 melanoma, 3.62 µM and 3.66 µM; in the assay on MOLT-4 leukemia it was 15.5 µM and > 10 µM. The TGI in the assay on NCI-H226 lung is 18.8 µM and > 10 µM; with OVCAR-4 ovarian, 14.8 µM and > 10 µM; in the assay with SNB-75 CNS, 5.79 µM and > 10 µM; with UACC-257 melanoma, 3.44 µM and 3.6 µM.
As to `COc1cc2ccc(/C(C)=N/OC(C)=O)cc2cc1OC`, the TGI is 76.9 µM with A498 renal; over 100 µM with HCT-15 colon; over 100 µM in the assay with KM12 colon; over 100 µM in the assay with LOX IMVI melanoma; over 100 µM in the assay on M14 melanoma; over 100 µM in the assay with MOLT-4 leukemia. The TGI in the assay on NCI-H226 lung was over 100 µM; in the assay on OVCAR-4 ovarian it was over 100 µM; in the assay with SNB-75 CNS, 40.9 µM; with UACC-257 melanoma, over 100 µM.
Consider `CC1=C2C(=O)C(C)(C)C=C2C(=O)[C@](C)(O)C12CC2`, for which the TGI in the assay on A498 renal, with HCT-15 colon, with KM12 colon, with LOX IMVI melanoma, in the assay on M14 melanoma and with MOLT-4 leukemia was over 1 µM each time. Also, the TGI with NCI-H226 lung, in the assay on OVCAR-4 ovarian, in the assay with SNB-75 CNS and in the assay with UACC-257 melanoma was over 1 µM in each case.
In the case of `NC(=O)c1cc(Cl)ccc1NC(=O)c1ccccc1-c1ccccc1`, the GI50 in the assay on A498 renal was 155 nM; in the assay with HCT-15 colon, 550 nM; in the assay on KM12 colon, 872 nM; in the assay with LOX IMVI melanoma, 806 nM; in the assay with M14 melanoma, 427 nM; in the assay on MOLT-4 leukemia it was 0.743 µM. Moreover, the GI50 is 18.4 µM in the assay with NCI-H226 lung, 798 nM in the assay on OVCAR-4 ovarian, 273 nM with SNB-75 CNS and 12800 nM with UACC-257 melanoma. Also, the TGI in the assay on A498 renal was 9.78 µM; in the assay on HCT-15 colon, over 100 µM; in the assay on KM12 colon, 46.3 µM; in the assay on LOX IMVI melanoma, 43 µM; in the assay with M14 melanoma it was 3.96 µM; with MOLT-4 leukemia it was over 100 µM. Further, the TGI in the assay with NCI-H226 lung was over 100 µM; in the assay with OVCAR-4 ovarian it was over 100 µM; in the assay with SNB-75 CNS, 3.2 µM; with UACC-257 melanoma it was 73.2 µM.
As for `N=C1C(c2nc3ccccc3s2)=C(O)CN1c1ccc(Cl)cc1Cl`, the GI50 in the assay with A498 renal is 12500 nM; with HCT-15 colon, 3650 nM; in the assay with KM12 colon it was 11700 nM; in the assay on LOX IMVI melanoma, 14800 nM; in the assay with M14 melanoma, 23700 nM; with MOLT-4 leukemia, 22.7 µM. The GI50 in the assay on NCI-H226 lung is 16.9 µM; with OVCAR-4 ovarian it was 18300 nM; in the assay on SNB-75 CNS it was 13100 nM; with UACC-257 melanoma, 7000 nM. The TGI in the assay with A498 renal is 50.7 µM; in the assay on HCT-15 colon, 22 µM; in the assay with KM12 colon it was 65.7 µM; with LOX IMVI melanoma, 41.2 µM; in the assay with M14 melanoma, over 100 µM; in the assay on MOLT-4 leukemia, over 100 µM. The TGI in the assay on NCI-H226 lung was 40.7 µM; with OVCAR-4 ovarian, 70.2 µM; with SNB-75 CNS it was over 100 µM; with UACC-257 melanoma, 45.3 µM.
